Measurements as given in ChEMBL document CHEMBL1201862, “PubChem BioAssay data set” (2004).
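Following 48 hours of exposure in 96-well plates, responses at five concentrations were used to interpolate endpoints linearly. GI50 is the concentration that inhibits growth by half.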 Active and inactive are the calls of the source. Cut-off read from the data, not from the text of the source: active = GI50 up to about 1.1 µM and inactive = higher.

Legend:
Experiment in all cases: DTP human tumour cell line panel, 48 h
[1] = system: KM-20L2
[2] = system: ACHN
[3] = system: SK-MEL-2
[4] = system: HCC 2998
[5] = system: XF498
[6] = system: K562
[7] = system: HOP-18
[8] = system: EKVX
[9] = system: RXF 393
[10] = system: NCI-H226
[11] = system: M19-MEL
[12] = system: LXFL 529
[13] = system: 786-0
[14] = system: SR
[15] = system: SF-268
[16] = system: M14
[17] = system: A498
[18] = system: SF-295
[19] = system: OVCAR-4
[20] = system: NCI-H460
[21] = system: UACC-62
[22] = system: SK-MEL-28
[23] = system: HL-60
[24] = system: SW-620
[25] = system: OVCAR-3
[26] = system: NCI-H522
[27] = system: A549
[28] = system: HCT-15
[29] = system: DMS-114
[30] = system: NCI-H23
[31] = system: HOP-62
[32] = system: COLO 205
[33] = system: IGROV-1
[34] = system: HOP-92
[35] = system: SF-539
[36] = system: Malme-3M
[37] = system: RXF 631
[38] = system: HT-29
[39] = system: SNB-78
[40] = system: SN12C
[41] = system: DLD-1
[42] = system: U-251
[43] = system: SNB-19
[44] = system: DMS-273
[45] = system: SK-OV-3
[46] = system: HCT-116
[47] = system: MOLT-4
[48] = system: CAKI-1
[49] = system: LOX IMVI
[50] = system: KM12
[51] = system: SK-MEL-5
[52] = system: UACC-257
[53] = system: SNB-75
[54] = system: CCRF-CEM
[55] = system: OVCAR-5
[56] = system: OVCAR-8
[57] = system: UO-31
[58] = system: TK-10
[59] = system: RPMI-8226

CCOC(=O)/C(=C/c1ccccn1)C(=O)c1ccccc1
GI50 [1]: 15.5 µM (inactive)
GI50 [2]: 20.4 µM (inactive)
GI50 [3]: 13.9 µM (inactive)
GI50 [4]: 17.3 µM (inactive)
GI50 [5]: 16.1 µM (inactive)
GI50 [6]: 5.19 µM (inactive)
GI50 [7]: 18.3 µM (inactive)
GI50 [8]: 19.1 µM (inactive)
GI50 [9]: 11.2 µM (inactive)
GI50 [10]: 15.9 µM (inactive)
GI50 [11]: 13.5 µM (inactive)
GI50 [12]: 11.1 µM (inactive)
GI50 [13]: 12.8 µM (inactive)
GI50 [14]: 3.32 µM (inactive)
GI50 [15]: 19.1 µM (inactive)
GI50 [16]: 15.1 µM (inactive)
GI50 [17]: 18.9 µM (inactive)
GI50 [18]: 13 µM (inactive)
GI50 [19]: 16.1 µM (inactive)
GI50 [20]: 23 µM (inactive)
GI50 [21]: 9.59 µM (inactive)
GI50 [22]: 11.8 µM (inactive)
GI50 [23]: 2.19 µM (inactive)
GI50 [24]: 14.2 µM (inactive)
GI50 [25]: 14.1 µM (inactive)
GI50 [26]: 5.47 µM (inactive)
GI50 [27]: 19.2 µM (inactive)
GI50 [28]: 13.2 µM
GI50 [29]: 14.3 µM (inactive)
GI50 [30]: 15.8 µM (inactive)
GI50 [31]: 15.2 µM (inactive)
GI50 [32]: 14.2 µM (inactive)
GI50 [33]: 16.3 µM (inactive)
GI50 [34]: 7.66 µM (inactive)
GI50 [35]: 16.7 µM (inactive)
GI50 [36]: 13.5 µM (inactive)
GI50 [37]: 13.6 µM (inactive)
GI50 [38]: 13.9 µM (inactive)
GI50 [39]: 17 µM (inactive)
GI50 [40]: 13.7 µM (inactive)
GI50 [41]: 10.4 µM (inactive)
GI50 [42]: 14.3 µM (inactive)
GI50 [43]: 17.6 µM (inactive)
GI50 [44]: 12.1 µM (inactive)
GI50 [45]: 17.9 µM (inactive)
GI50 [46]: 13.8 µM (inactive)
GI50 [47]: 8.34 µM (inactive)
GI50 [48]: 14.5 µM (inactive)
GI50 [49]: 2.48 µM (inactive)
GI50 [50]: 11.9 µM (inactive)
GI50 [51]: 14.3 µM (inactive)
GI50 [52]: 13.8 µM (inactive)
GI50 [53]: 13.8 µM (inactive)
GI50 [54]: 2.81 µM (inactive)
GI50 [55]: 19.1 µM (inactive)
GI50 [56]: 14.5 µM (inactive)
GI50 [57]: 16.3 µM (inactive)
GI50 [58]: 17.5 µM (inactive)
GI50 [59]: 3.42 µM (inactive)

O/N=C1/C(=C/c2ccc(F)cc2)CCCC1C(NO)c1ccc(F)cc1 (stereo not drawn)
GI50 [1]: 28.8 µM (inactive)
GI50 [2]: > 100 µM (inactive)
GI50 [3]: 34.6 µM (inactive)
GI50 [4]: 35.6 µM (inactive)
GI50 [5]: 64 µM (inactive)
GI50 [6]: 29.1 µM (inactive)
GI50 [7]: 21.1 µM (inactive)
GI50 [8]: 38.9 µM (inactive)
GI50 [9]: 21.3 µM (inactive)
GI50 [11]: 38.3 µM (inactive)
GI50 [12]: 38.4 µM (inactive)
GI50 [13]: 76.2 µM (inactive)
GI50 [15]: 23.2 µM (inactive)
GI50 [16]: 32.8 µM (inactive)
GI50 [17]: > 100 µM (inactive)
GI50 [18]: 41 µM (inactive)
GI50 [19]: 31.5 µM (inactive)
GI50 [20]: > 100 µM (inactive)
GI50 [21]: 34.4 µM (inactive)
GI50 [22]: 25.8 µM (inactive)
GI50 [23]: 25.1 µM (inactive)
GI50 [24]: 51.9 µM (inactive)
GI50 [25]: 23.7 µM (inactive)
GI50 [26]: 17.5 µM (inactive)
GI50 [27]: 32.9 µM (inactive)
GI50 [28]: 38 µM
GI50 [29]: 29.9 µM (inactive)
GI50 [30]: 16.6 µM (inactive)
GI50 [31]: > 100 µM (inactive)
GI50 [32]: 33.5 µM (inactive)
GI50 [33]: 89.1 µM (inactive)
GI50 [35]: 42.2 µM (inactive)
GI50 [36]: 26.7 µM (inactive)
GI50 [37]: 33 µM (inactive)
GI50 [38]: 21.6 µM (inactive)
GI50 [39]: 67 µM (inactive)
GI50 [40]: 20.8 µM (inactive)
GI50 [41]: 65.2 µM (inactive)
GI50 [42]: 46.8 µM (inactive)
GI50 [43]: 52.4 µM (inactive)
GI50 [44]: 40.6 µM (inactive)
GI50 [45]: > 100 µM (inactive)
GI50 [46]: 30 µM (inactive)
GI50 [47]: 22.3 µM (inactive)
GI50 [48]: 62.7 µM (inactive)
GI50 [50]: 22.3 µM (inactive)
GI50 [51]: 19 µM (inactive)
GI50 [52]: 25.4 µM (inactive)
GI50 [53]: 50.1 µM (inactive)
GI50 [54]: 33.2 µM (inactive)
GI50 [56]: 35.8 µM (inactive)
GI50 [57]: 25.6 µM (inactive)
GI50 [58]: 71.4 µM (inactive)
GI50 [59]: 20.8 µM (inactive)

Cn1cnc([N+](=O)[O-])c1Sc1nccc(O)n1
GI50 [2]: > 100 µM (inactive)
GI50 [3]: > 100 µM (inactive)
GI50 [4]: > 100 µM (inactive)
GI50 [5]: > 100 µM (inactive)
GI50 [6]: > 100 µM (inactive)
GI50 [7]: > 100 µM (inactive)
GI50 [8]: > 100 µM (inactive)
GI50 [10]: > 100 µM (inactive)
GI50 [11]: > 100 µM (inactive)
GI50 [12]: > 100 µM (inactive)
GI50 [13]: > 100 µM (inactive)
GI50 [14]: > 100 µM (inactive)
GI50 [15]: > 100 µM (inactive)
GI50 [16]: > 100 µM (inactive)
GI50 [17]: > 100 µM (inactive)
GI50 [18]: > 100 µM (inactive)
GI50 [19]: > 100 µM (inactive)
GI50 [20]: > 100 µM (inactive)
GI50 [21]: > 100 µM (inactive)
GI50 [22]: > 100 µM (inactive)
GI50 [24]: > 100 µM (inactive)
GI50 [25]: > 100 µM (inactive)
GI50 [26]: > 100 µM (inactive)
GI50 [27]: > 100 µM (inactive)
GI50 [29]: > 100 µM (inactive)
GI50 [30]: > 100 µM (inactive)
GI50 [31]: > 100 µM (inactive)
GI50 [32]: > 100 µM (inactive)
GI50 [33]: > 100 µM (inactive)
GI50 [34]: > 100 µM (inactive)
GI50 [35]: > 100 µM (inactive)
GI50 [36]: > 100 µM (inactive)
GI50 [37]: > 100 µM (inactive)
GI50 [38]: > 100 µM (inactive)
GI50 [39]: > 100 µM (inactive)
GI50 [40]: > 100 µM (inactive)
GI50 [41]: > 100 µM (inactive)
GI50 [42]: > 100 µM (inactive)
GI50 [43]: > 100 µM (inactive)
GI50 [44]: > 100 µM (inactive)
GI50 [45]: > 100 µM (inactive)
GI50 [46]: > 100 µM (inactive)
GI50 [47]: > 100 µM (inactive)
GI50 [48]: > 100 µM (inactive)
GI50 [49]: > 100 µM (inactive)
GI50 [50]: > 100 µM (inactive)
GI50 [51]: > 100 µM (inactive)
GI50 [52]: > 100 µM (inactive)
GI50 [53]: > 100 µM (inactive)
GI50 [54]: > 100 µM (inactive)
GI50 [55]: > 100 µM (inactive)
GI50 [56]: > 100 µM (inactive)
GI50 [57]: > 100 µM (inactive)
GI50 [58]: > 100 µM (inactive)
GI50 [59]: > 100 µM (inactive)
